Measurements: the kinase profiling compilation of Christmann-Franck et al. (2016)
One block for each molecule: values may come before it.

What was measured:
Experiment in all cases: radiometric filter-binding kinase assay
[1] = target: ABL1 (human) (UniProt P00519)
[2] = target: CDK9 CCNT1 (human) (UniProt P50750+O60563)
[3] = target: CSNK1G2 (human) (UniProt P78368)
[4] = target: DDR2 (human) (UniProt Q16832)
[5] = target: EIF2AK3 (human) (UniProt Q9NZJ5)
[6] = target: IRAK1 (human) (UniProt P51617)
[7] = target: MYLK (human) (UniProt Q15746)
[8] = tested on: OXSR1 (human), O95747 [T185E]
[9] = target: PRKCG (human) (UniProt P05129)
[10] = target: PTK6 (human) (UniProt Q13882)
[11] = target: SIK2 (human) (UniProt Q9H0K1)
[12] = target: SIK3 (human) (UniProt Q9Y2K2)
[13] = target: STK16 (human) (UniProt O75716)
[14] = target: STK24 (human) (UniProt Q9Y6E0)
[15] = target: STK33 (human) (UniProt Q9BYT3)
[16] = target: TEK (human) (UniProt Q02763)
TEK (human), sequence (Q02763 whole entry, looked up): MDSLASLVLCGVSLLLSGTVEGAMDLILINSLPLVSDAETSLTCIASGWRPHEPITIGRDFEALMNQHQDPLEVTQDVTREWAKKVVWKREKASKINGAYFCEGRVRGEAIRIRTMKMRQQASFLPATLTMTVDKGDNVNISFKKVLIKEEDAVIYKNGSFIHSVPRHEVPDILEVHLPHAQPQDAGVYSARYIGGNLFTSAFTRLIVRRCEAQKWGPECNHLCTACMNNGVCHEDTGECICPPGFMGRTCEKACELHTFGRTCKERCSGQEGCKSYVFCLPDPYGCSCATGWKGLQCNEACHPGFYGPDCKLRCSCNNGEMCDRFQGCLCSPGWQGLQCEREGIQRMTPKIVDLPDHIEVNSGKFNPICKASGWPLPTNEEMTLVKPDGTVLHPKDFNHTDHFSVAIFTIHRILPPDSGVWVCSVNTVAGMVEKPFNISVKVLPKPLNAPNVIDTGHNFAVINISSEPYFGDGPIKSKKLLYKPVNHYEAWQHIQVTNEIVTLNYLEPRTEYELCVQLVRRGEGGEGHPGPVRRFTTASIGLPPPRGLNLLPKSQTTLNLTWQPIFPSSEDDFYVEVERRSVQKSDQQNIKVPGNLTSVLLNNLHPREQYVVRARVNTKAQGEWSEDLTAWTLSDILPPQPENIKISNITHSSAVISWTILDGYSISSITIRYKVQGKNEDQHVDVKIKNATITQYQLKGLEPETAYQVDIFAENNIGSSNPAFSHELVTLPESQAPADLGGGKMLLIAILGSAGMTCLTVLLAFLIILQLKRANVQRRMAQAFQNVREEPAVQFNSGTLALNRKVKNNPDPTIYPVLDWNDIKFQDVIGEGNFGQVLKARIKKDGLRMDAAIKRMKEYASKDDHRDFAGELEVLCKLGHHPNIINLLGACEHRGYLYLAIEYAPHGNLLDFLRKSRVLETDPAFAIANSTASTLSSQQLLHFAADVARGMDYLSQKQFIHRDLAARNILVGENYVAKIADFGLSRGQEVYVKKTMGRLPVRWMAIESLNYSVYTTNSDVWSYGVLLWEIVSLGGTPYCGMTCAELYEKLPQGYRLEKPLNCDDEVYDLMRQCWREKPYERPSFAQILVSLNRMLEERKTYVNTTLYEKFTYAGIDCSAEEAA

[17] = target: TESK1 (human) (UniProt Q15569)
[18] = target: TLK1 (human) (UniProt Q9UKI8)
[19] = target: TSSK1B (human) (UniProt Q9BXA7)
TSSK1B (human), sequence (Q9BXA7 whole entry, looked up): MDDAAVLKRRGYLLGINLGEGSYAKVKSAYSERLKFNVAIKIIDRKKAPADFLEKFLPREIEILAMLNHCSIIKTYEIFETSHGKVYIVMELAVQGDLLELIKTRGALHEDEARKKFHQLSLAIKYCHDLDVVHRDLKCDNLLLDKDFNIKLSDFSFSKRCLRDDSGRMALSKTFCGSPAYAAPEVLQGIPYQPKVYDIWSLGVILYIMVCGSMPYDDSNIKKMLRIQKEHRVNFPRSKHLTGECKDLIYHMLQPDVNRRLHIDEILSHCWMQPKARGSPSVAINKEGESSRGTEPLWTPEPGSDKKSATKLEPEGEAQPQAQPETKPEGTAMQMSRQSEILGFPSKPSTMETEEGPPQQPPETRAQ

[20] = target: TTBK1 (human) (UniProt Q5TCY1)
[21] = target: ULK1 (human) (UniProt O75385)
[22] = target: ULK2 (human) (UniProt Q8IYT8)
[23] = target: WNK1 (human) (UniProt Q9H4A3)
[24] = target: ZAP70 (human) (UniProt P43403)
ZAP70 (human), sequence (P43403 whole entry, looked up): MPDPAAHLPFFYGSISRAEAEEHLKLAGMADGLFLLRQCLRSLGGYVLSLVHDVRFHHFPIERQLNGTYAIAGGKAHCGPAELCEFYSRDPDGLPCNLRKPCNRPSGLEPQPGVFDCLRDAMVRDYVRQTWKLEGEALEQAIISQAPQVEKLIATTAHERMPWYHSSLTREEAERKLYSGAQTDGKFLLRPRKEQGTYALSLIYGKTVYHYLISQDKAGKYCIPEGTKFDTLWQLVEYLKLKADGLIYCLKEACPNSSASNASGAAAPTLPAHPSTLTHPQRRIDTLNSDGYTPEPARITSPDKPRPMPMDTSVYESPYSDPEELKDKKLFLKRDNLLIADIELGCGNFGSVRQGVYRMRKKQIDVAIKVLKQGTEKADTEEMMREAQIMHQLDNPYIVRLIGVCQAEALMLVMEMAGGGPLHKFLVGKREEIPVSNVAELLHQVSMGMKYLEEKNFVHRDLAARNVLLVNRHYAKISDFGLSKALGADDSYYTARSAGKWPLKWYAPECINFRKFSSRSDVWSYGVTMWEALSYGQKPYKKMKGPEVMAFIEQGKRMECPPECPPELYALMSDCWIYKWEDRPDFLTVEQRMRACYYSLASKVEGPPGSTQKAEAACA

[25] = target: MAP4K3 (human) (UniProt Q8IVH8)
[26] = target: MAP4K5 (human) (UniProt Q9Y4K4)
MAP4K5 (human), sequence (Q9Y4K4 whole entry, looked up): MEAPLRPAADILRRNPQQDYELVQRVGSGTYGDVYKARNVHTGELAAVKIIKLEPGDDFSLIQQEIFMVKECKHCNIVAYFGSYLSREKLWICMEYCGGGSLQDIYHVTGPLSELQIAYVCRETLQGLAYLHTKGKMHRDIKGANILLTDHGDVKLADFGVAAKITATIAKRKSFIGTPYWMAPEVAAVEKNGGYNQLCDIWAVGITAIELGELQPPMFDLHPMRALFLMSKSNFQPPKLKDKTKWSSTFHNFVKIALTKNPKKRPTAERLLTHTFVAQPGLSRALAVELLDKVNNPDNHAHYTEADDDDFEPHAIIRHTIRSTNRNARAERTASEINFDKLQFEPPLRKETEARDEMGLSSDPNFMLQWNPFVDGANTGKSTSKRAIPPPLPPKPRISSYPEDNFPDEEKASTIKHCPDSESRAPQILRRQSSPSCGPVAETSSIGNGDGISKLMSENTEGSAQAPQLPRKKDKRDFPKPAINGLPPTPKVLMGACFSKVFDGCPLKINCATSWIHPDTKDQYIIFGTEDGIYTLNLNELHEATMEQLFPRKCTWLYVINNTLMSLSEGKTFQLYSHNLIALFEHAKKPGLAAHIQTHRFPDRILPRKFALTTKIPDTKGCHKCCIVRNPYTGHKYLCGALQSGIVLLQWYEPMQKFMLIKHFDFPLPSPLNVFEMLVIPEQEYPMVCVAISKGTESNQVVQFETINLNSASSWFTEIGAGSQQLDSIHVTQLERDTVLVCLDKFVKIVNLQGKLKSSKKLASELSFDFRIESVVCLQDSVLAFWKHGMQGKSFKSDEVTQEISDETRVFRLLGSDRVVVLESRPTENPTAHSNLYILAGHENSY

[27] = target: PDGFRA (human) (UniProt P16234)
[28] = target: PRKAA1 PRKAB2 PRKAG1 (human) (UniProt O43741+Q13131+P54619)
[29] = target: TTBK2 (human) (UniProt Q6IQ55)
TTBK2 (human), sequence (Q6IQ55 whole entry, looked up): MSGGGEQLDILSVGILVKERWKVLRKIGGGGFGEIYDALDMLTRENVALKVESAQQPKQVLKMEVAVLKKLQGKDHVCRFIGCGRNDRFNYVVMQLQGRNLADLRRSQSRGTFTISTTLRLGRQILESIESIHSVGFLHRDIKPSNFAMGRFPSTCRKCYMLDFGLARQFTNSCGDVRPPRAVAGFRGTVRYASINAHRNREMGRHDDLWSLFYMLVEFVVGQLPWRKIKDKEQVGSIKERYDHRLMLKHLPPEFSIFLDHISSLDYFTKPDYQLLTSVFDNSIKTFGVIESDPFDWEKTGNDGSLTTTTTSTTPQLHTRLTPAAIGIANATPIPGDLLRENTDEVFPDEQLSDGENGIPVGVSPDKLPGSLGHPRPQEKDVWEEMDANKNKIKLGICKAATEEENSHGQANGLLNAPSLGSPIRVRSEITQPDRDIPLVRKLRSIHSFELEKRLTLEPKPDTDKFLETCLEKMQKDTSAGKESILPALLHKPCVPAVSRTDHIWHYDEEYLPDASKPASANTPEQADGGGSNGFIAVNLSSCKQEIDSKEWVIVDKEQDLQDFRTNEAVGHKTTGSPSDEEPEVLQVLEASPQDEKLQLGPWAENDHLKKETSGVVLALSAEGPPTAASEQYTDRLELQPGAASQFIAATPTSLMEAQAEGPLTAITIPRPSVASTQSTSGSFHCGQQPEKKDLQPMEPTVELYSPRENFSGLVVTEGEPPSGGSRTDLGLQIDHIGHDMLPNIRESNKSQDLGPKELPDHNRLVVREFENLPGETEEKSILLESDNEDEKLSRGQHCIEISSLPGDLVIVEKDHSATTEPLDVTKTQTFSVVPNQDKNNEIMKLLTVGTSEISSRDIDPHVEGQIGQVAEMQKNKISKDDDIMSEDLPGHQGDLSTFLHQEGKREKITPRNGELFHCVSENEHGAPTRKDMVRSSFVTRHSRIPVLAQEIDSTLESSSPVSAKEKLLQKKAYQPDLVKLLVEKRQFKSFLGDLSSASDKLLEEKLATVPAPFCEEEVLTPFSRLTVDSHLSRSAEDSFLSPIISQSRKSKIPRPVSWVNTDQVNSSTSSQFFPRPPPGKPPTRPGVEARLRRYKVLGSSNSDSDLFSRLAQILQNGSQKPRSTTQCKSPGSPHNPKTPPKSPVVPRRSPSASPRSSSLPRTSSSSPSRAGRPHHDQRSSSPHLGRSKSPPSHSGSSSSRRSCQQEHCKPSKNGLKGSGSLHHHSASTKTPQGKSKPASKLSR

DDR2 (human), sequence (Q16832 whole entry, looked up): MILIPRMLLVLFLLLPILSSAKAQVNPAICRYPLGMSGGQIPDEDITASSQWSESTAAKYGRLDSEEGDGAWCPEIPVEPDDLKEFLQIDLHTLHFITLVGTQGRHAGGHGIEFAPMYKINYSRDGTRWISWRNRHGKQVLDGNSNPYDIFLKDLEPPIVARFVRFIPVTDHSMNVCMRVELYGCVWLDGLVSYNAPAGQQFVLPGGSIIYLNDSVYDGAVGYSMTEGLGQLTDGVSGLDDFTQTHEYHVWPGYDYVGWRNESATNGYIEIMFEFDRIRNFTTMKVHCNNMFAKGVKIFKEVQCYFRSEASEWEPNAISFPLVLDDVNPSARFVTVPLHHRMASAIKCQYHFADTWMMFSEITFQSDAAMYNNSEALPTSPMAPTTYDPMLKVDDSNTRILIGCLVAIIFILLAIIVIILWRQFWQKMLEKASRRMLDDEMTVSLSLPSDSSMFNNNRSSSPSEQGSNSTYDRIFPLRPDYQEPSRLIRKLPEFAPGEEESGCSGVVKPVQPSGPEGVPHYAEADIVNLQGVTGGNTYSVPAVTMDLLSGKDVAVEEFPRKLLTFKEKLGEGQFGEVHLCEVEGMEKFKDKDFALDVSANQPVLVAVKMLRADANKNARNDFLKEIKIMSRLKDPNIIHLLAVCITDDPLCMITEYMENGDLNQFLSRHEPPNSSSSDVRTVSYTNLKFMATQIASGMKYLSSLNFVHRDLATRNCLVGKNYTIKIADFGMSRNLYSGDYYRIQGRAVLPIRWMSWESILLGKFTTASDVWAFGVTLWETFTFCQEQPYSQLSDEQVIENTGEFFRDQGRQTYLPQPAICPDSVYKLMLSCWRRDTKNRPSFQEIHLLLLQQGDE

residual activity ([1]; compound 0.01 µM): 96%
residual activity ([1]; compound 0.1 µM): 97%
residual activity ([1]; compound 1.0 µM): 105%
residual activity ([2]; compound 0.01 µM): 97%
residual activity ([2]; compound 0.1 µM): 117%
residual activity ([2]; compound 1.0 µM): 111%
residual activity ([3]; compound 0.01 µM): 100%
residual activity ([3]; compound 0.1 µM): 100%
residual activity ([3]; compound 1.0 µM): 109%
residual activity ([4]; compound 0.01 µM): 91%
residual activity ([4]; compound 0.1 µM): 113%
residual activity ([5]; compound 0.01 µM): 105%
residual activity ([5]; compound 0.1 µM): 92%
residual activity ([6]; compound 0.01 µM): 97%
residual activity ([6]; compound 0.1 µM): 97%
residual activity ([7]; compound 0.01 µM): 108%
residual activity ([7]; compound 0.1 µM): 102%
residual activity ([7]; compound 1.0 µM): 96%
residual activity ([8]; compound 0.01 µM): 104%
residual activity ([8]; compound 0.1 µM): 99%
residual activity ([9]; compound 0.01 µM): 103%
residual activity ([9]; compound 0.1 µM): 109%
residual activity ([9]; compound 1.0 µM): 89%
residual activity ([10]; compound 0.01 µM): 101%
residual activity ([10]; compound 1.0 µM): 48%
residual activity ([11]; compound 0.01 µM): 106%
residual activity ([11]; compound 0.1 µM): 107%
residual activity ([11]; compound 1.0 µM): 88%
residual activity ([12]; compound 0.01 µM): 102%
residual activity ([12]; compound 0.1 µM): 93%
residual activity ([12]; compound 1.0 µM): 94%
residual activity ([13]; compound 0.01 µM): 94%
residual activity ([13]; compound 1.0 µM): 102%
residual activity ([14]; compound 0.01 µM): 106%
residual activity ([14]; compound 0.1 µM): 104%
residual activity ([14]; compound 1.0 µM): 114%
residual activity ([15]; compound 0.01 µM): 113%
residual activity ([15]; compound 0.1 µM): 105%
residual activity ([15]; compound 1.0 µM): 113%
residual activity ([16]; compound 0.01 µM): 122%
residual activity ([16]; compound 0.1 µM): 101%
residual activity ([16]; compound 1.0 µM): 122%
residual activity ([17]; compound 0.1 µM): 107%
residual activity ([17]; compound 1.0 µM): 92%
residual activity ([18]; compound 0.01 µM): 95%
residual activity ([18]; compound 0.1 µM): 101%
residual activity ([19]; compound 0.01 µM): 112%
residual activity ([19]; compound 0.1 µM): 110%
residual activity ([19]; compound 1.0 µM): 99%
residual activity ([20]; compound 0.01 µM): 89%
residual activity ([20]; compound 0.1 µM): 82%
residual activity ([21]; compound 0.01 µM): 91%
residual activity ([21]; compound 0.1 µM): 88%
residual activity ([21]; compound 1.0 µM): 92%
residual activity ([22]; compound 0.01 µM): 94%
residual activity ([22]; compound 0.1 µM): 96%
residual activity ([23]; compound 0.01 µM): 94%
residual activity ([23]; compound 0.1 µM): 107%
residual activity ([23]; compound 1.0 µM): 106%
residual activity ([24]; compound 0.1 µM): 101%
residual activity ([24]; compound 1.0 µM): 103%
Compound: COc1cc(O)c2c(c1)[C@H]1OC1C[C@H](O)[C@H](O)C(=O)/C=C\C[C@H](C)OC2=O (stereo not given in full)

residual activity ([1]; compound 0.1 µM): 101%
residual activity ([1]; compound 1.0 µM): 110%
residual activity ([1]; compound 10.0 µM): 106%
residual activity ([2]; compound 0.1 µM): 94%
residual activity ([2]; compound 1.0 µM): 97%
residual activity ([2]; compound 10.0 µM): 107%
residual activity ([3]; compound 0.1 µM): 109%
residual activity ([3]; compound 1.0 µM): 104%
residual activity ([3]; compound 10.0 µM): 103%
residual activity ([4]; compound 0.1 µM): 105%
residual activity ([4]; compound 1.0 µM): 100%
residual activity ([4]; compound 10.0 µM): 94%
residual activity ([5]; compound 0.1 µM): 129%
residual activity ([5]; compound 1.0 µM): 108%
residual activity ([5]; compound 10.0 µM): 115%
residual activity ([6]; compound 0.1 µM): 101%
residual activity ([6]; compound 1.0 µM): 99%
residual activity ([6]; compound 10.0 µM): 100%
residual activity ([25]; compound 0.1 µM): 81%
residual activity ([25]; compound 1.0 µM): 85%
residual activity ([25]; compound 10.0 µM): 84%
residual activity ([26]; compound 0.1 µM): 106%
residual activity ([26]; compound 1.0 µM): 110%
residual activity ([26]; compound 10.0 µM): 94%
residual activity ([7]; compound 0.1 µM): 113%
residual activity ([7]; compound 1.0 µM): 114%
residual activity ([7]; compound 10.0 µM): 114%
residual activity ([8]; compound 0.1 µM): 128%
residual activity ([8]; compound 1.0 µM): 109%
residual activity ([8]; compound 10.0 µM): 125%
residual activity ([27]; compound 1.0 µM): 117%
residual activity ([27]; compound 10.0 µM): 121%
residual activity ([28]; compound 0.1 µM): 107%
residual activity ([28]; compound 1.0 µM): 120%
residual activity ([28]; compound 10.0 µM): 112%
residual activity ([9]; compound 0.1 µM): 119%
residual activity ([9]; compound 1.0 µM): 112%
residual activity ([9]; compound 10.0 µM): 102%
residual activity ([10]; compound 0.1 µM): 109%
residual activity ([10]; compound 1.0 µM): 123%
residual activity ([11]; compound 0.1 µM): 82%
residual activity ([11]; compound 1.0 µM): 78%
residual activity ([11]; compound 10.0 µM): 66%
residual activity ([12]; compound 0.1 µM): 105%
residual activity ([12]; compound 1.0 µM): 106%
residual activity ([12]; compound 10.0 µM): 94%
residual activity ([13]; compound 10.0 µM): 126%
residual activity ([14]; compound 0.1 µM): 111%
residual activity ([14]; compound 1.0 µM): 126%
residual activity ([14]; compound 10.0 µM): 133%
residual activity ([15]; compound 0.1 µM): 116%
residual activity ([15]; compound 10.0 µM): 120%
residual activity ([16]; compound 1.0 µM): 98%
residual activity ([16]; compound 10.0 µM): 83%
residual activity ([17]; compound 0.1 µM): 109%
residual activity ([17]; compound 1.0 µM): 114%
residual activity ([17]; compound 10.0 µM): 104%
residual activity ([18]; compound 0.1 µM): 101%
residual activity ([18]; compound 1.0 µM): 103%
residual activity ([18]; compound 10.0 µM): 98%
residual activity ([19]; compound 0.1 µM): 100%
residual activity ([19]; compound 1.0 µM): 102%
residual activity ([19]; compound 10.0 µM): 78%
residual activity ([20]; compound 0.1 µM): 100%
residual activity ([20]; compound 1.0 µM): 118%
residual activity ([20]; compound 10.0 µM): 95%
residual activity ([29]; compound 0.1 µM): 108%
residual activity ([29]; compound 1.0 µM): 105%
residual activity ([29]; compound 10.0 µM): 112%
residual activity ([21]; compound 0.1 µM): 108%
residual activity ([21]; compound 1.0 µM): 115%
residual activity ([21]; compound 10.0 µM): 111%
residual activity ([22]; compound 0.1 µM): 92%
residual activity ([22]; compound 1.0 µM): 96%
residual activity ([22]; compound 10.0 µM): 90%
residual activity ([23]; compound 0.1 µM): 117%
residual activity ([23]; compound 1.0 µM): 111%
residual activity ([23]; compound 10.0 µM): 113%
residual activity ([24]; compound 1.0 µM): 113%
Compound: CC1=C(CO)C(=O)O[C@@H]([C@@H](C)[C@H]2CC[C@H]3[C@@H]4C[C@H]5O[C@]56[C@@H](O)C=CC(=O)[C@]6(C)C4CC[C@]23C)C1 (stereo not given in full)
